Experimental data published in US20130303509A1, “NAMPT INHIBITORS” (AbbVie Inc., priority 2012, published 2013).
pIC50: −log10 of the molar value.

System: PC3 cells
Test: NAMPT Cell Proliferation Assay
Format: cell-based
Details: Homo sapiens, PC-3, 120 h, 5 days incubation, cell viability by Cell Titer Glo
How it was run: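 Five-day CellTiter-Glo viability readout in PC3 cells grown in RPMI/10% heat-inactivated FBS. Compounds added after overnight attachment as a 10-fold dilution series, […]. Percent inhibition fitted to sigmoidal dose-response to derive IC50.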

SMILES	pIC50
Cc1ncccc1N1CC(C(=O)Nc2ccc(C3CCN(C(=O)C(C)(C)O)CC3)cc2)C1 [Example 71, N-{4-[1-(2-hydroxy-2-methylpropanoyl)piperidin-4-yl]phenyl}-1-(2-methylpyridin-3-yl)azetidine-3-carboxamide]	7.14
O=C(Nc1ccc(OC2CCN(C(=O)c3cccs3)CC2)cc1)C1CN(c2ccnnc2)C1 [Example 303, 1-(pyridazin-4-yl)-N-(4-{[1-(thiophen-2-ylcarbonyl)piperidin-4-yl]oxy}phenyl)azetidine-3-carboxamide]	7.23
O=C(Nc1ccc(C2CCN(C(=O)c3cc(Cl)ccc3Cl)CC2)cc1)C1CN(c2cccnn2)C1 [Example 363, N-{4-[1-(2,5-dichlorobenzoyl)piperidin-4-yl]phenyl}-1-(pyridazin-3-yl)azetidine-3-carboxamide]	8.25
COCCOCC(=O)N1CCC(Oc2ccc(NC(=O)C3CN(c4cccnc4)C3)cc2)CC1 [Example 48, N-[4-({1-[(2-methoxyethoxy)acetyl]piperidin-4-yl}oxy)phenyl]-1-(pyridin-3-yl)azetidine-3-carboxamide]	8.54
O=C(Nc1ccc(O[C@@H]2CCN(C(=O)c3ccc(Cl)cc3)C2)cc1)C1CN(c2cccnn2)C1 [Example 507, N-(4-{[(3R)-1-(4-chlorobenzoyl)pyrrolidin-3-yl]oxy}phenyl)-1-(pyridazin-3-yl)azetidine-3-carboxamide]	8.08
O=C(Nc1ccc(C2CCN(C(=O)c3cccs3)CC2)cc1)C1CN(c2cccnc2)C1 [Example 127, 1-(pyridin-3-yl)-N-{4-[1-(thiophen-2-ylcarbonyl)piperidin-4-yl]phenyl}azetidine-3-carboxamide]	9.85
O=C(Nc1ccc(C2CC3CCC(C2)N3C(=O)c2ccccc2F)cc1)C1CN(c2cccnn2)C1 (stereo not shown) [Example 843, N-{4-[8-(2-fluorobenzoyl)-8-azabicyclo[3.2.1]oct-3-yl]phenyl}-1-(pyridazin-3-yl)azetidine-3-carboxamide]	9.21
CCC(C)(C)C(=O)N1CC[C@@H](Oc2ccc(NC(=O)C3CN(c4cccnn4)C3)cc2)C1 [Example 515, N-(4-{[(3R)-1-(2,2-dimethylbutanoyl)pyrrolidin-3-yl]oxy}phenyl)-1-(pyridazin-3-yl)azetidine-3-carboxamide]	9.07
O=C(Nc1ccc(OC2CCN(C(=O)c3ccc(F)c(F)c3)CC2)cc1)C1CN(c2ccnnc2)C1 [Example 274, N-(4-{[1-(3,4-difluorobenzoyl)piperidin-4-yl]oxy}phenyl)-1-(pyridazin-4-yl)azetidine-3-carboxamide]	6.97
O=C(Nc1ccc(OC2CCN(C(=O)CC3CC3)CC2)cc1)C1CN(c2cccnn2)C1 [Example 233, N-(4-{[1-(cyclopropylacetyl)piperidin-4-yl]oxy}phenyl)-1-(pyridazin-3-yl)azetidine-3-carboxamide]	8.06
O=C(Nc1ccc(O[C@@H]2CCN(C(=O)Cc3ccc(C(F)(F)F)cc3)C2)cc1)C1CN(c2cccnn2)C1 [Example 497, 1-(pyridazin-3-yl)-N-(4-{[(3R)-1-{[4-(trifluoromethyl)phenyl]acetyl}pyrrolidin-3-yl]oxy}phenyl)azetidine-3-carboxamide]	7.63
O=C(Nc1ccc(OC2CCN(C(=O)Cc3cccc(C(F)(F)F)c3)CC2)cc1)C1CN(c2cccnn2)C1 [Example 240, 1-(pyridazin-3-yl)-N-{4-[(1-{[3-(trifluoromethyl)phenyl]acetyl}piperidin-4-yl)oxy]phenyl}azetidine-3-carboxamide]	7.99
CC(C)C(C)C(=O)N1CCC(c2ccc(NC(=O)C3CN(c4cccnn4)C3)cc2)CC1 (stereo not shown) [Example 326, N-{4-[1-(2,3-dimethylbutanoyl)piperidin-4-yl]phenyl}-1-(pyridazin-3-yl)azetidine-3-carboxamide]	8.24
O=C(Nc1ccc(S(=O)(=O)C2CCN(C(=O)C3CCCCC3)CC2)cc1)C1CN(c2cccnn2)C1 [Example 568, N-(4-{[1-(cyclohexylcarbonyl)piperidin-4-yl]sulfonyl}phenyl)-1-(pyridazin-3-yl)azetidine-3-carboxamide]	7.32

Next, values leading:

pIC50	SMILES
8.69	O=C(Nc1ccc(C2CCN(C(=O)c3cccc(F)c3F)CC2)cc1)[C@H]1CCN(c2cccnn2)C1 [Example 676, (3S)-N-{4-[1-(2,3-difluorobenzoyl)piperidin-4-yl]phenyl}-1-(pyridazin-3-yl)pyrrolidine-3-carboxamide]
< 5.00	CC(C)Cn1cc(-c2cc(C(=O)N[C@@H]3CCN(c4ccnnc4)C3)cs2)cn1 [Example 624, 5-[1-(2-methylpropyl)-1H-pyrazol-4-yl]-N-[(3R)-1-(pyridazin-4-yl)pyrrolidin-3-yl]thiophene-3-carboxamide]
7.69	COc1ccc(C(=O)N2CCC(c3ccc(NC(=O)[C@H]4CCN(c5cccnn5)C4)cc3)CC2)cc1 [Example 705, (3S)-N-{4-[1-(4-methoxybenzoyl)piperidin-4-yl]phenyl}-1-(pyridazin-3-yl)pyrrolidine-3-carboxamide]
< 5.00	CC(C)Cn1cc(-c2cc(C(=O)N[C@@H]3CCN(c4cnnc(Cl)c4Cl)C3)cs2)cn1 [Example 622, N-[(3R)-1-(5,6-dichloropyridazin-4-yl)pyrrolidin-3-yl]-5-[1-(2-methylpropyl)-1H-pyrazol-4-yl]thiophene-3-carboxamide]
7.01	O=C(Nc1ccc(O[C@H]2CCN(C(=O)c3cc(F)cc(F)c3)C2)cc1)[C@H]1CCN(c2cccnn2)C1 [Example 826, (3S)—N-(4-{[(3S)-1-(3,5-difluorobenzoyl)pyrrolidin-3-yl]oxy}phenyl)-1-(pyridazin-3-yl)pyrrolidine-3-carboxamide]
8.06	C=CCCC(=O)N1CCC(c2ccc(NC(=O)[C@H]3CCN(c4cccnn4)C3)cc2)CC1 [Example 700, (3S)-N-{4-[1-(pent-4-enoyl)piperidin-4-yl]phenyl}-1-(pyridazin-3-yl)pyrrolidine-3-carboxamide]
8.01	O=C(Nc1ccc(C2CCN(C(=O)c3ccc(F)cc3)CC2)cc1)[C@H]1CCN(c2cccnn2)C1 [Example 689, (3S)-N-{4-[1-(4-fluorobenzoyl)piperidin-4-yl]phenyl}-1-(pyridazin-3-yl)pyrrolidine-3-carboxamide]
8.59	CC1(Cn2cc(-c3ccc(NC(=O)C4CN(c5cccnn5)C4)cc3)cn2)CCOCC1 [Example 748, N-(4-{1-[(4-methyltetrahydro-2H-pyran-4-yl)methyl]-1H-pyrazol-4-yl}phenyl)-1-(pyridazin-3-yl)azetidine-3-carboxamide]
6.11	CC(C)(C)C(=O)N1CCC(c2ccc(NC(=O)[C@@H]3CCN(c4cccnn4)C3)cc2)CC1 [Example 795, (3R)—N-{4-[1-(2,2-dimethylpropanoyl)piperidin-4-yl]phenyl}-1-(pyridazin-3-yl)pyrrolidine-3-carboxamide]
7.19	O=C(Nc1ccc(C2CCN(C(=O)c3ccc(C(F)(F)F)cc3)CC2)cc1)[C@H]1CCN(c2cccnn2)C1 [Example 699, (3S)-1-(pyridazin-3-yl)-N-(4-{1-[4-(trifluoromethyl)benzoyl]piperidin-4-yl}phenyl)pyrrolidine-3-carboxamide]
7.05	O=C(Nc1ccc(S(=O)(=O)C2CCN(C(=O)c3ccccc3Cl)CC2)cc1)C1CN(c2cccnn2)C1 [Example 611, N-(4-{[1-(2-chlorobenzoyl)piperidin-4-yl]sulfonyl}phenyl)-1-(pyridazin-3-yl)azetidine-3-carboxamide]
